Columns and labels:
[1] = test system: CMV promoter (plasmid pCMV-lacZ); test: β-galactosidase expression from transiently transfected pCMV-lacZ in MCF-7 and T47D; conditions: transiently transfected MCF-7 and T47D (FIG. 9)
[2] = test system: IV; assay type: cell-based, Influenza Virus H1N1 strain A/PR/8/34; conditions: MDCK cells
[3] = test system: C-terminal domain (CTD) of RNA polymerase II, serine 2 and serine 5; test: Immunoblotting: phosphorylation of the C-terminal domain of RNA polymerase II; assay type: cell-based; conditions: 12 hours treatment, cell lines with incorporated SV40, all tested cell lines (FIG. 12A)
Procedure: Cell were detached with rubber policeman and washed three times with ice-cold PBS and lysed in buffer (50 mM Tris, pH 7.4, 250 mM NaCl, 5 mM EDTA, 50 mM NaF, 1 mM Na3VO4, 1% Nonidet P40) containing mixture of protease and phosphatase inhibitors (Sigma-Aldrich St Louis, Mo., USA). 20 μg of total proteins were separated by SDS-polyacrylamide gel electrophoresis (SDS-PAGE) on 8% or 10% gels and transferred onto nitrocellulose membranes. Membranes were blocked in 5% milk and 0.1% Tween 20 in PBS and probed overnight with specific monoclonal antibodies or rabbit polyclonal sera. Primary antibodies specific for RNA polymerase II (all from Santa Cruz Biotechnology, California, USA) included: (i) N-20 used at 1 μg/ml, (ii) H14, specific for form phosphorylated at phosphoserine 5, used at 6 μg/ml and (iii) H5, specific for form phosphorylated at phosphoserine 2 used at 4 μg/ml. Additional primary mAb used in immunblots included (iv) anti-p53 (DO-1, in house) used at 1 μg/ml, (v) anti-p21^WAF1 (118, in house), used at 1 μg/ml), (vi) anti-actin (A-2066, Sigma-Aldrich St Louis, Mo., USA) used at 1 μg/ml, (vii) anti-T-antigen (419, in house), used at 1 μg/ml. All primary antibodies were diluted in PBS containing 5% powdered milk; 0.1% Tween 20. Peroxidase conjugated rabbit anti-mouse immunoglobulin or porcine anti-rabbit immunoglobulin antisera (DAKO, Glostrup, Denmark) were used as the secondary antibodies and visualised with ECL reagents (Amersham-Pharmacia, Little Chalfont, UK).
Modulation of expression from the HIV promoter by CDKI treatment may be mediated by transcriptional regulation. At the C-terminus of the largest subunit of RNA Pol II is an important regulatory domain referred to as CTD (C-terminal domain). We therefore investigated the effect of CDKIs on CTD serine 2 and serine 5 phosphorylation. […] Although the functions of CDKs and RNA polymerase II were suppressed, the expression from incorporated viral promoters was enhanced.
Cell were detached with rubber policeman and washed three times with ice-cold PBS and lysed in buffer (50 mM Tris, pH 7.4, 250 mM NaCl, 5 mM EDTA, 50 mM NaF, 1 mM Na3VO4, 1% Nonidet P40) containing mixture of protease and phosphatase inhibitors (Sigma-Aldrich St Louis, Mo., USA). 20 μg of total proteins were separated by SDS-polyacrylamide gel electrophoresis (SDS-PAGE) on 8% or 10% gels and transferred onto nitrocellulose membranes. Membranes were blocked in 5% milk and 0.1% Tween 20 in PBS and probed overnight with specific monoclonal antibodies or rabbit polyclonal sera. […]

[4] = test system: HIV promoter (pHIV-lacZ, extrachromosomal) in H1299-TAT cells; test: β-galactosidase expression from pHIV-lacZ transiently transfected to H1299-TAT; conditions: H1299-TAT cells (FIG. 11)
[5] = test system: HSV-1; test: Plaque number reduction assay, HSV-1 on HFFF; assay type: cell-based, Herpes simplex virus type 1 strain 17
[6] = test system: HSV-2; test: Plaque number reduction assay, HSV-2 on HFFF; assay type: cell-based, HSV-2 strain HG52
[7] = test system: HAd4; test: Plaque number reduction assay, HAd4 on A549; assay type: cell-based, Human adenovirus type 4 (HAdV-4) strain RI-6
[8] = test system: HCMV; test: Plaque number reduction assay, HCMV on HFFF; assay type: cell-based, Human cytomegalovirus strain Toledo
[9] = test system: HIV promoter integrated into cellular DNA (H1299-HIV cells); test: β-galactosidase expression from pHIV-lacZ incorporated to cellular genome (H1299-HIV); conditions: HIV promoter integrated into cellular DNA (FIG. 11)
[10] = test system: SV40 large T-antigen; assay type: cell-based; conditions: SV40-infected MCF-7 and T47D; 20 μM Roscovitine or 8 μM 105 (FIG. 8)
[11] = test system: MV; test: MV syncytium reduction assay in B95a cells; assay type: cell-based, Measles virus wildtype strain WTFb
[12] = test system: SV40 large T-antigen in COS-1 cells; test: Expression from SV40 promoter incorporated in the cellular genome (COS-1 cells); assay type: cell-based; conditions: COS-1 cells (FIG. 10)
Procedure: Cell were detached with rubber policeman and washed three times with ice-cold PBS and lysed in buffer (50 mM Tris, pH 7.4, 250 mM NaCl, 5 mM EDTA, 50 mM NaF, 1 mM Na3VO4, 1% Nonidet P40) containing mixture of protease and phosphatase inhibitors (Sigma-Aldrich St Louis, Mo., USA). 20 μg of total proteins were separated by SDS-polyacrylamide gel electrophoresis (SDS-PAGE) on 8% or 10% gels and transferred onto nitrocellulose membranes. Membranes were blocked in 5% milk and 0.1% Tween 20 in PBS and probed overnight with specific monoclonal antibodies or rabbit polyclonal sera. Primary antibodies specific for RNA polymerase II (all from Santa Cruz Biotechnology, California, USA) included: (i) N-20 used at […] (ii) H14, specific for form phosphorylated at phosphoserine 5, used at 6 μg/ml and (iii) H5, specific for form phosphorylated at phosphoserine 2 used at 4 μg/ml. Additional primary mAb used in immunblots included (iv) anti-p53 (D0-1, in house, […]) used at 1 μg/ml, (v) anti-p21^WAF1 (118, in house), used at 1 μg/ml), (vi) anti-actin (A-2066, Sigma-Aldrich St Louis, Mo., USA) used at 1 μg/ml, (vii) anti-T-antigen (419, in house, Lane), used at 1 μg/ml. All primary antibodies were diluted in PBS containing 5% powdered milk; 0.1% Tween 20. […]

[13] = test system: VV; assay type: cell-based, Vaccinia virus strain WR; conditions: Vaccinia virus on HFFF
[14] = molecular target: CDK9 (Homo sapiens, UniProt P50750); conditions: Olomoucine II compared with Roscovitine; cited from earlier work
[15] = test system: tumor suppressor protein p53; conditions: Olomoucine II compared with Roscovitine; cited from earlier work

Chain of CDK9 (P50750 whole entry, species assumed): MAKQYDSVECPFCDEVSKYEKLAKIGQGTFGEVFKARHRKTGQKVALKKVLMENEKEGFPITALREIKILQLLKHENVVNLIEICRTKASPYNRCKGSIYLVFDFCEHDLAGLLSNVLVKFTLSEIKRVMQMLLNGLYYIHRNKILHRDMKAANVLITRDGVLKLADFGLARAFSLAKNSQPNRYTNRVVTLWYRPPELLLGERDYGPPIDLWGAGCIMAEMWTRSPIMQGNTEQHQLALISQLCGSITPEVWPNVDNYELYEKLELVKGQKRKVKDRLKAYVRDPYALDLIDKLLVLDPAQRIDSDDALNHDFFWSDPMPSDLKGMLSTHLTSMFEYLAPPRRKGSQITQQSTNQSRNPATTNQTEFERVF
Chain of CDK9 (O60563 whole entry partner, species assumed): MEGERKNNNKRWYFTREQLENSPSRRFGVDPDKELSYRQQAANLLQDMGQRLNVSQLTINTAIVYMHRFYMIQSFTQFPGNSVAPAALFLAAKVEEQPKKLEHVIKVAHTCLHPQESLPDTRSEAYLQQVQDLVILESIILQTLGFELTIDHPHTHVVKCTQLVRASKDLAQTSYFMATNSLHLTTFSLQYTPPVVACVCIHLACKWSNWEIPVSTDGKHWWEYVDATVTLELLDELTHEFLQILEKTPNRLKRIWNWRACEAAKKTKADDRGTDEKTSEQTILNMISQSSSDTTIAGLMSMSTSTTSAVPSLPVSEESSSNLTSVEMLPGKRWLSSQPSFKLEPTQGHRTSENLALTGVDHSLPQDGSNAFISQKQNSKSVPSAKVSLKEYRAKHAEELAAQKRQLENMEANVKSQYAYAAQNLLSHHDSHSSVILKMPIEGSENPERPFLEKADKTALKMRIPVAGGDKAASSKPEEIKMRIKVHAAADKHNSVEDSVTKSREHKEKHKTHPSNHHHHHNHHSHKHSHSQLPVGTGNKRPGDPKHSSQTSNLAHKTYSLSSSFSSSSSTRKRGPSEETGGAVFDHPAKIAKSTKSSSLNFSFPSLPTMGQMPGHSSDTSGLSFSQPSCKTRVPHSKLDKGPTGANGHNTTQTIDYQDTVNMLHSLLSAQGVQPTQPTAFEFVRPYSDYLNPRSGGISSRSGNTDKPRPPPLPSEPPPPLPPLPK

SMILES	expression from CMV promoter (β-galactosidase activity) [1]	inhibition of virus replication (in words) [2]	phosphorylation of both serine 2 and serine 5 of RNA polymerase II CTD [3]	expression from pHIV-lacZ (extrachromosomal location), β-galactosidase readout [4]	inhibition of virus replication (in words) [5]	inhibition of virus replication (in words) [6]	inhibition of virus replication (in words) [7]	inhibition of virus replication (in words) [8]	increase of reporter readout [9]	level of large T-antigen [10]	inhibition of virus replication (in words) [11]	large T-antigen expression [12]	inhibition of virus replication (in words) [13]	higher inhibitory activity for CDK9 [14]	lower concentrations inducing nuclear accumulation and transcriptional activation of p53 [15]
CC[C@H](CO)Nc1nc(NCc2ccccc2)c2ncn(C(C)C)c2n1 [Roscovitine, 2-(R)-(1-Ethyl-2-hydroxyethylamino)-6-benzylamino-9-isopropylpurine, reference compound]	inhibited expression	ineffective	inhibited	inhibited	did not inhibit	did not inhibit	inhibited HAd4 replication	equally sensitive	2.5 times	reduced level	ineffective	stimulated large T-antigen expression	no overt effect	–	–
CC[C@H](CO)Nc1nc(NCc2ccccc2O)c2ncn(C(C)C)c2n1 [Olomoucine II]	–	–	–	–	–	–	–	–	–	–	–	–	–	10 fold	2-3 fold

Reference: patent publication US9023857B2, “Substituted 6-(2-aminobenzylamino)purine derivatives, their use as medicaments and preparations containing these compounds” (Univerzita Palackeho V Olomouci, priority 2009, dated 2015)
